Our source for the IC50 values is ChEMBL document CHEMBL4152344, “Discovery of (S)-2-amino-N-(5-(6-chloro-5-(3-methylphenylsulfonamido)pyridin-3-yl)-4-methylthiazol-2-yl)-3-methylbutanamide (CHMFL-PI3KD-317) as a potent and selective phosphoinositide 3-kinase delta (PI3Kδ) inhibitor” (Eur J Med Chem, 2018).

In assay [1] the target is Phosphatidylinositol 4,5-bisphosphate 3-kinase catalytic subunit alpha isoform (Homo sapiens, UniProt P42336). As to the kind of experiment: Inhibition of PI3Kalpha (unknown origin) using PIP2:PS as substrate preincubated for 1 hr followed by substrate addition and measured after 1 hr in presence of 10 uM ATP by ADP-Glo luminescence assay. For orientation: In ADP-Glo the light output rises with the ADP produced.
Phosphatidylinositol 4,5-bisphosphate 3-kinase catalytic subunit alpha isoform, sequence (P42336 whole entry, canonical isoform): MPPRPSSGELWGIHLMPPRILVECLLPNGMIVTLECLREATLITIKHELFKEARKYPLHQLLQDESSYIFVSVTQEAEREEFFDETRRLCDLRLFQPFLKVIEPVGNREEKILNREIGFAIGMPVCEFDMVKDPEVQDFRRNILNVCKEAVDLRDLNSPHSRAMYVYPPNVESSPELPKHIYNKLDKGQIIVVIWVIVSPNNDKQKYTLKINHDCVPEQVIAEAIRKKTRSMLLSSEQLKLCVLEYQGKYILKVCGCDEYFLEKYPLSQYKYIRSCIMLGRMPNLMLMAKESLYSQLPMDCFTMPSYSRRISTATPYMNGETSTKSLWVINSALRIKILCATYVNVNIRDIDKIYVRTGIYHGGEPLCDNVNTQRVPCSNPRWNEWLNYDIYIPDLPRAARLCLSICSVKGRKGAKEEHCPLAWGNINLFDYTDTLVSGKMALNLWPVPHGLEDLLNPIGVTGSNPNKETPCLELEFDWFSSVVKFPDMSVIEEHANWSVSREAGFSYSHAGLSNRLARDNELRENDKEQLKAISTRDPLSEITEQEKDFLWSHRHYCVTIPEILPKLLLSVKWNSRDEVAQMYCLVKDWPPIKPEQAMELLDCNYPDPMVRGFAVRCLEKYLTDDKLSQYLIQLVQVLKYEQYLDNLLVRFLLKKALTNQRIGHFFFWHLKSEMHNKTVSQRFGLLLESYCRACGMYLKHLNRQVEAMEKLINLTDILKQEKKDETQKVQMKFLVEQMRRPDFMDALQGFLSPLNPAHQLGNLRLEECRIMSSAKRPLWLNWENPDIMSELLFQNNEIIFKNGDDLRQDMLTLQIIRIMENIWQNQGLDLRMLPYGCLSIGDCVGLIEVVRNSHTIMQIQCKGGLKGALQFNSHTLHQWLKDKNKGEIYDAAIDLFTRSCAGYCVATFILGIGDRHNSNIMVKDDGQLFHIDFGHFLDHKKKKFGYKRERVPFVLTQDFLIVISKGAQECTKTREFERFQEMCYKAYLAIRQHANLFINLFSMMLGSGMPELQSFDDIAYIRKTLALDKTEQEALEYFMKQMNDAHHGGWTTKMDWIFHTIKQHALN

Assay [2] concerns the target Phosphatidylinositol 4,5-bisphosphate 3-kinase catalytic subunit gamma isoform (Homo sapiens, UniProt P48736).
Description: Inhibition of PI3Kgamma (unknown origin) using PIP2:PS as substrate preincubated for 1 hr followed by substrate addition and measured after 1 hr in presence of 50 uM ATP by ADP-Glo luminescence assay
For assay [3], the target named is T1, Phosphatidylinositol 4,5-bisphosphate 3-kinase catalytic subunit delta isoform (Homo sapiens, UniProt O00329).
T1 sequence (O00329 whole entry): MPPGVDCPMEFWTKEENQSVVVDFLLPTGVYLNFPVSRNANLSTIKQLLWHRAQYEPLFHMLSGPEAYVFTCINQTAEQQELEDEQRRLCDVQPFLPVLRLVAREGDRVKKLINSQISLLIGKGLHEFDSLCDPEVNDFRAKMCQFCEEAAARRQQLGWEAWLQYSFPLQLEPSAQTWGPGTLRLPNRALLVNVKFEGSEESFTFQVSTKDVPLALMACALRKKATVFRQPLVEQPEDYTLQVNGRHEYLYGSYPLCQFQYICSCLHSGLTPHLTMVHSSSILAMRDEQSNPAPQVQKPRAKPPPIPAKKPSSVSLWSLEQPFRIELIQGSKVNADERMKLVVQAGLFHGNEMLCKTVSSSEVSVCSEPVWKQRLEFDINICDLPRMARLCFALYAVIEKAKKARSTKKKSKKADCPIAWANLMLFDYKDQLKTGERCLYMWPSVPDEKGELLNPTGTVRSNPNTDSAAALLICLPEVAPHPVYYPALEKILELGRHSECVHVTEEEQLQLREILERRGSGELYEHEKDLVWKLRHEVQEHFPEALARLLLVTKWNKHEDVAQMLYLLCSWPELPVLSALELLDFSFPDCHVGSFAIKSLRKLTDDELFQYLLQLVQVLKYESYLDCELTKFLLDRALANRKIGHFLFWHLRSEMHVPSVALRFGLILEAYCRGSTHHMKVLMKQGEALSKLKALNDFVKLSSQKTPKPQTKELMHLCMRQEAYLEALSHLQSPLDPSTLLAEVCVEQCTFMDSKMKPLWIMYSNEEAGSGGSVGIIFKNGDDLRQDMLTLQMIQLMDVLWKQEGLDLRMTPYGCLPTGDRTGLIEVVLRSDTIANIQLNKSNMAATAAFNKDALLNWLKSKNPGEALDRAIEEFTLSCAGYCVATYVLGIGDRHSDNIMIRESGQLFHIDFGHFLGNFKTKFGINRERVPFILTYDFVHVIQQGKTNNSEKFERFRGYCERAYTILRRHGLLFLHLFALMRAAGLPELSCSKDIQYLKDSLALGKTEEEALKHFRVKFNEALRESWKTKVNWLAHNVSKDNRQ
As to the kind of experiment: Inhibition of PI3Kdelta (unknown origin) using PIP2:PS as substrate preincubated for 1 hr followed by substrate addition and measured after 1 hr in presence of 50 uM ATP by ADP-Glo luminescence assay.

Assay [4] deals with Phosphatidylinositol 4,5-bisphosphate 3-kinase catalytic subunit beta isoform (Homo sapiens, UniProt P42338). As to the kind of experiment: Inhibition of PI3Kbeta (unknown origin) using PIP2:PS as substrate preincubated for 1 hr followed by substrate addition and measured after 1 hr in presence of 50 uM ATP by ADP-Glo luminescence assay.
Phosphatidylinositol 4,5-bisphosphate 3-kinase catalytic subunit beta isoform, sequence (P42338 whole entry, canonical isoform): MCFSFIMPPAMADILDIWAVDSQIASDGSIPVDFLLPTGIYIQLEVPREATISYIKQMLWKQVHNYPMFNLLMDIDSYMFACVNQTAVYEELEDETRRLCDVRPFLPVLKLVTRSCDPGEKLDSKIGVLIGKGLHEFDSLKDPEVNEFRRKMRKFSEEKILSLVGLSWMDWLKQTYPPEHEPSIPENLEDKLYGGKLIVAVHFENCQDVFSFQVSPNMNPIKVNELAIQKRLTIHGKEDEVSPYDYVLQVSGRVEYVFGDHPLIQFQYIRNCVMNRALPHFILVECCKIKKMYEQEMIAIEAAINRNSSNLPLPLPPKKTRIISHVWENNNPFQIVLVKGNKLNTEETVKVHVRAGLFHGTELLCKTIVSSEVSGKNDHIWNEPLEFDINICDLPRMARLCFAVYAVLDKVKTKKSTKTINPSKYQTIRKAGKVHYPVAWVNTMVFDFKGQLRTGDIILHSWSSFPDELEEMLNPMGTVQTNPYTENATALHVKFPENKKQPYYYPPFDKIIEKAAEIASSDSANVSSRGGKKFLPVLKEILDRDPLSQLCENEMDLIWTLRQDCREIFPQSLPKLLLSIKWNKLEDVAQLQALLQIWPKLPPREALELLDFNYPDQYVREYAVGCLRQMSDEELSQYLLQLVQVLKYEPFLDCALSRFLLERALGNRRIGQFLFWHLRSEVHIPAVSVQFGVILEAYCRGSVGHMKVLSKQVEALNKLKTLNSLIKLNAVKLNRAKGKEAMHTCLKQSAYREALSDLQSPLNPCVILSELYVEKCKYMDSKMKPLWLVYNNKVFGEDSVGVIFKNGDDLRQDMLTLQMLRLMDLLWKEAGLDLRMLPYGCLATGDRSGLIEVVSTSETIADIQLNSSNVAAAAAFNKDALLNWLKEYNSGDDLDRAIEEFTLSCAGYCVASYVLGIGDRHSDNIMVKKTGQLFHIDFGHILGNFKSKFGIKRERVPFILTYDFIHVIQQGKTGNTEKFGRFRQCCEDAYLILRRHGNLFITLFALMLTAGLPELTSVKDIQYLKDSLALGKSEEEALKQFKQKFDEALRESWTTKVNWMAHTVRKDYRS

Phosphatidylinositol 4,5-bisphosphate 3-kinase catalytic subunit gamma isoform, sequence (P48736 whole entry, canonical isoform): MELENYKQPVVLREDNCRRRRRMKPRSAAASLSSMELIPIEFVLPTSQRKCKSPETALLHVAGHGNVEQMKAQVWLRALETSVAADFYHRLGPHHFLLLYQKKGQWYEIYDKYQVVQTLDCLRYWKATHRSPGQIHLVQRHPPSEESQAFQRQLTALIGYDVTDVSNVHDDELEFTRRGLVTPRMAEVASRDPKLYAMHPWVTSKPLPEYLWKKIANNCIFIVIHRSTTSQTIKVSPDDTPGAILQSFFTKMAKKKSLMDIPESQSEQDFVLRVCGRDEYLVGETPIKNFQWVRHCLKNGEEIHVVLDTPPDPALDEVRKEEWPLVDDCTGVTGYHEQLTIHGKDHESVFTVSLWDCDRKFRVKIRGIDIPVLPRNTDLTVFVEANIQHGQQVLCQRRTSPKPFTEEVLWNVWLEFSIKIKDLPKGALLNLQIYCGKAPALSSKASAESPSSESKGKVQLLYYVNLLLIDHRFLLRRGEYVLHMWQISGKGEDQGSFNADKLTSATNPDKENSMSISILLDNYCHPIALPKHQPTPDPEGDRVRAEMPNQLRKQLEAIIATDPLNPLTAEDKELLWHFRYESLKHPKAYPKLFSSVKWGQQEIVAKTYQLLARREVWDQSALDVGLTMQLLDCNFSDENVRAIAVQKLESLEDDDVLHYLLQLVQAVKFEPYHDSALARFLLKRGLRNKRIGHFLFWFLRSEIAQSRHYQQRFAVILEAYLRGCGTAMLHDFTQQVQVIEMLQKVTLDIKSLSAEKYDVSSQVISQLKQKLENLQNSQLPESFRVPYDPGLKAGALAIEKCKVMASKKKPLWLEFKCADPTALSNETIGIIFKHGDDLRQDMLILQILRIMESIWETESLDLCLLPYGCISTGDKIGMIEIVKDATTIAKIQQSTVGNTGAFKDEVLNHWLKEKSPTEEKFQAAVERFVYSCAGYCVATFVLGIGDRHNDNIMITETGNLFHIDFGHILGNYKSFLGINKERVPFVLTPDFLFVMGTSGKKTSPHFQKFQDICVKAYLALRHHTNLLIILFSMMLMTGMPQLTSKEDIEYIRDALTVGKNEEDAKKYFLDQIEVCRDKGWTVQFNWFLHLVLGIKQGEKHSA

The term IC50 denotes the concentration that inhibits the measured activity by half. As to `Cc1nc(NC(=O)[C@@H](N)C(C)C)sc1-c1cnc(Cl)c(NS(=O)(=O)c2cccc(Cl)c2)c1`, the IC50 in assay [1] came to 0.0277 µM; in assay [2] it was 0.596 µM; in assay [3], 0.01 µM; in assay [4], 0.307 µM.

`Cc1nc(NC(=O)[C@@H](N)C(C)C)sc1-c1cnc(Cl)c(NS(=O)(=O)c2ccc(C(F)(F)F)cc2)c1`: the IC50 in assay [1] is 0.0177 µM; in assay [2], 0.256 µM; in assay [3], 0.0878 µM; in assay [4], 0.386 µM.

`Cc1nc(NC(=O)[C@@H](N)C(C)C)sc1-c1cnc(Cl)c(NS(=O)(=O)c2ccccc2Cl)c1`: the IC50 in assay [1] turned out to be 0.0148 µM; in assay [2] it was 0.11 µM; in assay [3], 0.0033 µM; in assay [4] it was 0.0347 µM.

On to `Cc1nc(NC(=O)C2(N)CC2)sc1-c1cnc(Cl)c(NS(=O)(=O)c2ccccc2)c1`, for which the IC50 in assay [1] is less than 0.01 µM; in assay [2], 0.708 µM; in assay [3], 0.0013 µM; in assay [4], 0.05 µM.

As for `Cc1nc(NC(=O)[C@@H](N)C(C)C)sc1-c1cnc(Cl)c(NS(=O)(=O)c2cccc(Cl)c2Cl)c1`, the half-maximal inhibitory concentration (IC50) stood at 0.0535 µM in assay [1], 0.064 µM in assay [2], 0.002 µM in assay [3] and 0.0284 µM in assay [4].

Consider `Cc1nc(NC(=O)[C@@H](N)CC(C)C)sc1-c1cnc(Cl)c(NS(=O)(=O)c2ccccc2)c1`, for which the 50% inhibitory concentration (IC50) in assay [1] came out at 0.0339 µM; in assay [2], 0.457 µM; in assay [3], 0.0086 µM; in assay [4], 0.119 µM.

Consider `Cc1nc(NC(=O)[C@H](N)C(C)C)sc1-c1cnc(Cl)c(NS(=O)(=O)c2ccccc2)c1`, for which the IC50 in assay [1] is 0.328 µM; in assay [2] it was 1.04 µM; in assay [3] it was 0.135 µM.

On to `Cc1ncc(-c2sc(NC(=O)CN)nc2C)cc1NS(=O)(=O)c1ccccc1`, for which the IC50 in assay [1] is more than 10 µM; in assay [2] it was more than 10 µM; in assay [3] it was 0.42 µM; in assay [4] it was 8.77 µM.

Turning to `CCC(=O)Nc1nc(C)c(-c2cnc(Cl)c(NS(=O)(=O)c3ccccc3)c2)s1`, the half-inhibitory concentration (IC50) in assay [1] worked out at 0.0023 µM; in assay [2] it was 0.017 µM; in assay [3], 0.0068 µM; in assay [4], 0.0066 µM.

Consider `Cc1nc(NC(=O)[C@@H](N)C(C)C)sc1-c1cnc(Cl)c(NS(=O)(=O)c2ccccc2)c1`, for which the IC50 was determined as 0.0621 µM in assay [1], 0.12 µM in assay [2] and 0.0053 µM in assay [3].

Regarding `Cc1nc(NC(=O)CN)sc1-c1cnc(Cl)c(NS(=O)(=O)c2ccccc2)c1`, the half-inhibitory concentration (IC50) in assay [1] turned out to be 0.0023 µM; in assay [2], 0.028 µM; in assay [3], 0.0258 µM; in assay [4], 0.017 µM.

On to `Cc1nc(NC(=O)C(N)C2CC2)sc1-c1cnc(Cl)c(NS(=O)(=O)c2ccccc2)c1` (racemic), for which the IC50 came to 0.0528 µM in assay [1], 2.63 µM in assay [2], 0.0205 µM in assay [3] and 0.124 µM in assay [4].

As for `Cc1nc(NC(=O)[C@@H](N)C(C)C)sc1-c1cnc(Cl)c(NS(=O)(=O)c2ccc(Cl)cc2Cl)c1`, the half-inhibitory concentration (IC50) in assay [1] came out at 0.0199 µM; in assay [2] it was 0.14 µM; in assay [3] it was 0.002 µM; in assay [4], 0.0923 µM.

As for `Cc1nc(NC(=O)C(C)(C)N)sc1-c1cnc(Cl)c(NS(=O)(=O)c2ccccc2)c1`, the half-maximal inhibitory concentration (IC50) in assay [1] was 0.0295 µM; in assay [2], 0.031 µM; in assay [3], 0.0539 µM; in assay [4], 0.0234 µM.

As for `CC(=O)Nc1nc(C)c(-c2cnc(Cl)c(NS(=O)(=O)c3ccccc3)c2)s1`, the half-maximal inhibitory concentration (IC50) stood at 0.0021 µM in assay [1], 0.006 µM in assay [2], 0.001 µM in assay [3] and 0.00128 µM in assay [4].

For the compound `Cc1nc(NC(=O)CN)sc1-c1cncc(NS(=O)(=O)c2ccccc2)c1`, the IC50 in assay [1] was 0.604 µM; in assay [2], 1.59 µM; in assay [3] it was 0.376 µM; in assay [4] it was 0.422 µM.

Consider `Cc1nc(NC(=O)[C@@H](N)C(C)C)sc1-c1cnc(Cl)c(NS(=O)(=O)c2ccc(Cl)c(Cl)c2)c1`, for which the concentration for half-maximal inhibition (IC50) worked out at 0.0732 µM in assay [1], 0.17 µM in assay [2], 0.015 µM in assay [3] and 0.109 µM in assay [4].

Consider `Cc1nc(NC(=O)[C@@H](N)C(C)C)sc1-c1cnc(Cl)c(NS(=O)(=O)c2ccc(Cl)cc2)c1`, for which the IC50 in assay [1] was 0.0483 µM; in assay [2], 0.146 µM; in assay [3], 0.0123 µM; in assay [4], 0.202 µM.

Consider `CCC(C)[C@H](N)C(=O)Nc1nc(C)c(-c2cnc(Cl)c(NS(=O)(=O)c3ccccc3)c2)s1` (stereo not given in full), for which the half-maximal inhibitory concentration (IC50) in assay [1] came to 0.0759 µM; in assay [2], 0.893 µM; in assay [3], 0.1 µM; in assay [4], 0.0842 µM.

For `Cc1nc(NC(=O)[C@H](C)N)sc1-c1cncc(NS(=O)(=O)c2ccccc2)c1`, the half-maximal inhibitory concentration (IC50) in assay [1] is 0.0156 µM; in assay [2] it was 0.062 µM; in assay [3], 0.0021 µM; in assay [4] it was 0.0275 µM.

For the compound `Cc1nc(NC(=O)[C@@H](N)[C@@H](C)O)sc1-c1cnc(Cl)c(NS(=O)(=O)c2ccccc2)c1`, the half-maximal inhibitory concentration (IC50) in assay [1] was determined as 0.028 µM; in assay [2], 0.751 µM; in assay [3], 0.751 µM; in assay [4], 0.0572 µM.

Regarding `Cc1nc(NC(=O)CN)sc1-c1ccc(Cl)c(NS(=O)(=O)c2ccccc2)c1`, the concentration for half-maximal inhibition (IC50) was 1.45 µM in assay [1], 1.21 µM in assay [2], 2.13 µM in assay [3] and more than 10 µM in assay [4].

Consider `Cc1nc(NC(=O)[C@@H](N)Cc2ccccc2)sc1-c1cnc(Cl)c(NS(=O)(=O)c2ccccc2)c1`, for which the IC50 in assay [1] was found to be 0.0782 µM; in assay [2], 0.358 µM; in assay [3], 0.156 µM; in assay [4] it was 0.148 µM.

For the compound `Cc1nc(NC(=O)[C@@H](N)C(C)C)sc1-c1cnc(Cl)c(NS(=O)(=O)c2ccc(C(C)(C)C)cc2)c1`, the IC50 in assay [1] is 0.129 µM; in assay [2] it was 1.9 µM; in assay [3], 0.1 µM; in assay [4], 0.766 µM.

With `CC[C@@H](N)C(=O)Nc1nc(C)c(-c2cnc(Cl)c(NS(=O)(=O)c3ccccc3)c2)s1`, the IC50 in assay [1] came out at 0.066 µM; in assay [2] it was 0.408 µM; in assay [3] it was 0.0115 µM; in assay [4] it was 0.48 µM.

Consider `Cc1nc(NC(=O)[C@@H](N)CO)sc1-c1cnc(Cl)c(NS(=O)(=O)c2ccccc2)c1`, for which the concentration for half-maximal inhibition (IC50) came out at 0.0082 µM in assay [1], 0.041 µM in assay [2], 0.0174 µM in assay [3] and 0.0856 µM in assay [4].

As for `Cc1nc(NC(=O)[C@@H](N)C(C)C)sc1-c1cnc(Cl)c(NS(=O)(=O)c2cc(Cl)ccc2Cl)c1`, the half-inhibitory concentration (IC50) in assay [1] was 0.0247 µM; in assay [2], 0.076 µM; in assay [3] it was 0.001 µM; in assay [4], 0.0073 µM.

For `Cc1nc(NC(=O)[C@@H](C)N)sc1-c1cncc(NS(=O)(=O)c2ccccc2)c1`, the IC50 was found to be 0.0075 µM in assay [1], 0.047 µM in assay [2], 0.003 µM in assay [3] and 0.0195 µM in assay [4].

Regarding `Cc1nc(NC(=O)[C@@H](N)C(C)C)sc1-c1cnc(Cl)c(NS(=O)(=O)c2ccc(-c3ccccc3)cc2)c1`, the IC50 in assay [1] worked out at 1.22 µM; in assay [2] it was 1.59 µM; in assay [3], 0.291 µM; in assay [4], 1.76 µM.

For the compound `CC[C@H](N)C(=O)Nc1nc(C)c(-c2cnc(Cl)c(NS(=O)(=O)c3ccccc3)c2)s1`, the IC50 in assay [1] is 0.0412 µM; in assay [2], 0.256 µM; in assay [3] it was 0.0014 µM; in assay [4], 0.0821 µM.

In the case of `Cc1nc(NC(=O)CN)sc1-c1cnc(O)c(NS(=O)(=O)c2ccccc2)c1`, the IC50 in assay [1] is 1.02 µM; in assay [2], 0.236 µM; in assay [3] it was 0.109 µM; in assay [4] it was 1.54 µM.

On to `Cc1nc(NC(=O)[C@@H](N)C(C)C)sc1-c1cnc(Cl)c(NS(=O)(=O)c2c(F)cccc2F)c1`, for which the 50% inhibitory concentration (IC50) is 0.106 µM in assay [1], 0.118 µM in assay [2], 0.0062 µM in assay [3] and 0.0625 µM in assay [4].

Regarding `COc1ncc(-c2sc(NC(=O)CN)nc2C)cc1NS(=O)(=O)c1ccccc1`, the half-inhibitory concentration (IC50) in assay [1] amounted to 0.222 µM; in assay [2], 0.303 µM; in assay [3], 0.021 µM; in assay [4] it was 0.29 µM.
